We go through 25 molecules from patent publication US20150352108A1, “AMINO-PYRIMIDINE COMPOUNDS AS INHIBITORS OF TBK1 AND/OR IKK EPSILON” (Alzheimer's Institute of America, priority 2009, published 2015).

A value given as a limit tells only on which side of the number the result lay.

One may read the IC50 as the concentration that inhibits the measured activity by half.

One assay addresses T1, IKKε (Homo sapiens, UniProt Q14164).
T1 construct: His-tag; made in house; host or cells: Sf9 insect cells
T1 sequence (Q14164 1-716): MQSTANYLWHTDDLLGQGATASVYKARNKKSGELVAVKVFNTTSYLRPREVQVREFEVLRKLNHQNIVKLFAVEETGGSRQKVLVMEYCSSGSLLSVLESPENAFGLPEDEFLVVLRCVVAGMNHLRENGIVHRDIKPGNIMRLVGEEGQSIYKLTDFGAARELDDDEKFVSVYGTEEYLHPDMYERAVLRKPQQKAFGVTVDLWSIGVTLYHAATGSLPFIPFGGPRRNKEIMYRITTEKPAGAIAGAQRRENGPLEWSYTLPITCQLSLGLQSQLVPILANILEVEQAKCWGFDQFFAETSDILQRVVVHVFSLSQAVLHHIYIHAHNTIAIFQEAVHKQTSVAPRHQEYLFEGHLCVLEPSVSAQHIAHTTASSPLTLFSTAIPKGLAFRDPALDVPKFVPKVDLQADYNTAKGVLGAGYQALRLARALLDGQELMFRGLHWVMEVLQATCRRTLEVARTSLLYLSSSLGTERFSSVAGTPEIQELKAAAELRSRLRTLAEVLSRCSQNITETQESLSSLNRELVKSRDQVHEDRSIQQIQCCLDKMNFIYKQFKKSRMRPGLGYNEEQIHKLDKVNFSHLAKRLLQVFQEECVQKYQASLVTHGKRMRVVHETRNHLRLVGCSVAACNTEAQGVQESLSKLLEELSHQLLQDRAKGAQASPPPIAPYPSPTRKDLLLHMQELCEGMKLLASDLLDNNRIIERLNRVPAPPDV
Put plainly: In-vitro IKKε kinase assay ([γ33]ATP filter-plate). It is filed as biochemical. The following applies: text bins; read-out: IC50 for inhibition of the kinase activity of IKKε. Summed up: (§1)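 Phosphorylation of casein or myelin basic protein was counted by P-81 filter capture after 30-45 min reactions stopped with phosphoric acid, with counts normalized to DMSO after background subtraction. ATP was twice Km: 60 μM for TBK1 and 32 μM for IKKε, plus [γ33]ATP. Sf9-expressed His-tag enzymes were used at normal/sensitized levels of 0.1/0.02 μg/ml (TBK1) and 0.1/0.015 μg/ml (IKKε).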

For another assay, the target named is T2, TBK1 (Homo sapiens, UniProt Q9UHD2).
T2 construct: His-tag; made in house; host or cells: Sf9 insect cells
T2 sequence (Q9UHD2 1-729): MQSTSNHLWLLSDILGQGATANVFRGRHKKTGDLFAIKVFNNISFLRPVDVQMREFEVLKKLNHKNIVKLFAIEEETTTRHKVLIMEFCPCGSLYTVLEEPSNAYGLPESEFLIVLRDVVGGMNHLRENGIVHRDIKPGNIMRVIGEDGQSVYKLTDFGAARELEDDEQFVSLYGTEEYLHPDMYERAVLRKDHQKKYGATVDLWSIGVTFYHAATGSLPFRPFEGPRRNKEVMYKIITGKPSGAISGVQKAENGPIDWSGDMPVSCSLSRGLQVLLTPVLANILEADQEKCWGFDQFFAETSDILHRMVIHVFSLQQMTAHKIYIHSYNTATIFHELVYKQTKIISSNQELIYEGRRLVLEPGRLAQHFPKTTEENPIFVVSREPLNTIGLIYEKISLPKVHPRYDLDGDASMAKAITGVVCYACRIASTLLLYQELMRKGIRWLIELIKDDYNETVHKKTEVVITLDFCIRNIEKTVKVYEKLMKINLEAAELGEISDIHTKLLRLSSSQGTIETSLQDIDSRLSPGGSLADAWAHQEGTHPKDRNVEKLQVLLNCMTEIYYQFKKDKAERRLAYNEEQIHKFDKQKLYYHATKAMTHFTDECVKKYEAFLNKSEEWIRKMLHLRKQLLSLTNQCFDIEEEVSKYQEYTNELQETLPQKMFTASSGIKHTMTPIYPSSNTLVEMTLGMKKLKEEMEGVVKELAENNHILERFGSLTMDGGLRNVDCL
The assay is described as follows: In-vitro TBK1 kinase assay ([γ33]ATP filter-plate). It is filed as biochemical. The following applies: text bins; read-out: IC50 for inhibition of the kinase activity of TBK1. In a few lines: as §1

For the molecule `CC(C)Oc1ccc(-c2ccnc(Nc3ccc(N4CCN(C)CC4)cc3)n2)cc1C#N` [compound 335, 5-(2-{[4-(4-Methylpiperazin-1-yl)phenyl]amino}pyrimidin-4-yl)-2-(propan-2-yloxy)benzonitrile], the IC50 is less than 5 nM on IKKε and less than 10 nM at TBK1.
Turning to `N#Cc1cc(-c2nc(Nc3ccc(N4CCOCC4)cc3)nc3[nH]cnc23)ccc1OC1CCOCC1` [compound 553], the IC50 lay in the range of 5 to 50 nM at IKKε and 10 to 100 nM on TBK1.
As for `COc1cc(C#N)cc(-c2ccnc(Nc3cccc(NC(C)=O)c3)n2)c1` [Example 214, N-(3-{[4-(3-Cyano-5-methoxyphenyl)pyrimidin-2-yl]amino}phenyl) acetamide], the IC50 lay in the range of 5 to 50 nM at IKKε and 10 to 100 nM at TBK1.
On the same counts, the results for `COc1ccc(-c2ccnc(Nc3ccc(CN4CCOCC4)cc3)n2)cc1C#N` [Example 251, 2-Methoxy-5-(2-{[4-(morpholin-4-ylmethyl)phenyl]amino}pyrimidin-4-yl)benzonitrile] are 5 to 50 nM and 10 to 100 nM.
As to `N#Cc1cc(-c2ccnc(Nc3cccc(CC(=O)NCCCN4CCOCC4)c3)n2)ccc1OC1CCOCC1` [compound 407, 2-[3-({4-[3-Cyano-4-(tetrahydro-2H-pyran-4-yloxy)phenyl]pyrimidin-2-yl}amino)phenyl]-N-[3-(morpholin-4-yl)propyl]acetamide], the values for the IC50 at IKKε and at TBK1 were 5 to 50 nM and less than 10 nM, respectively.
In the case of `C[C@H](O)C(=O)N1CCC(Oc2ccc(-c3ccnc(Nc4ccc(CN5CCOCC5)cc4)n3)cc2C#N)CC1` [compound 509, 2-({1-[(2S)-2-hydroxypropanoyl]piperidin-4-yl}oxy)-5-(2-{[4-(morpholin-4-ylmethyl)phenyl]amino}pyrimidin-4-yl)benzonitrile], the results for the IC50 at IKKε and at TBK1 were 5 to 50 nM and less than 10 nM, respectively.
The matching figures for `COc1cc(C#N)cc(-c2ccnc(Nc3ccc(N4CCOCC4)cc3)n2)c1` [Example 241, 3-Methoxy-5-(2-{[4-(morpholin-4-yl)phenyl]amino}pyrimidin-4-yl)benzonitrile]: 5 to 50 nM and 10 to 100 nM.
Turning to `COCCNC(=O)c1ccc(Nc2nccc(-c3ccc(NC(=O)C4CC4)c(C#N)c3)n2)cc1OC` [compound 558, 4-[(4-{3-Cyano-4-[(cyclopropylcarbonyl)amino]phenyl}pyrimidin-2-yl)amino]-2-methoxy-N-(2-methoxyethyl) benzamide], the IC50 on IKKε was less than 5 nM; at TBK1 it was less than 10 nM.
`COc1ccc(-c2ccnc(Nc3ccc(OC)c(OCCN4CCOCC4)c3)n2)cc1C#N` [compound 368, 2-Methoxy-5-[2-({4-methoxy-3-[2-(morpholin-4-yl)ethoxy]phenyl}amino)pyrimidin-4-yl]benzonitrile]: the figures for the IC50 on IKKε and on TBK1 were 5 to 50 nM and 10 to 100 nM, respectively.
For `COc1cc(N)cc(Nc2nccc(-c3ccc(OC)c(C#N)c3)n2)c1` [compound 358, 5-{2-[(3-Amino-5-methoxyphenyl)amino]pyrimidin-4-yl}-2-methoxybenzonitrile], the results for the IC50 at IKKε and at TBK1 were 5 to 50 nM and 10 to 100 nM, respectively.
As for `N#Cc1cc(-c2ccnc(Nc3ccc(N4CCOCC4)cc3)n2)ccc1OCc1ccccc1` [Example 179, 2-(Benzyloxy)-5-(2-{[4-(morpholin-4-yl)phenyl]amino}pyrimidin-4-yl)benzonitrile], the IC50 at IKKε lay within 5 to 50 nM; at TBK1, 10 to 100 nM.
Take `N#Cc1cc(-c2ccnc(Nc3ccc(N4CCOCC4)cc3)n2)ccc1OCC1CCCNC1` (centres unmarked) [Example 94]: the values for the IC50 on IKKε and on TBK1 were 5 to 50 nM and 10 to 100 nM, respectively.
Consider `CC(C)COc1ccc(-c2ccnc(Nc3ccc(CS(=O)(=O)NCCO)cc3)n2)cc1C#N` [compound 645, 1-[4-({4-[3-Cyano-4-(2-methylpropoxy)phenyl]pyrimidin-2-yl}amino)phenyl]-N-(2-hydroxyethyl) methanesulfonamide], for which the results for the IC50 at IKKε and at TBK1 were less than 5 nM and less than 10 nM, respectively.
In the case of `COc1cc(Nc2nccc(-c3ccc(OC4CCOCC4)c(C#N)c3)n2)ccc1C(=O)NCc1cccnc1` [Example 275, 4-({4-[3-cyano-4-(tetrahydro-2H-pyran-4-yloxy)phenyl]pyrimidin-2-yl}amino)-2-methoxy-N-(pyridin-3-ylmethyl)benzamide], the half-maximal inhibitory concentration (IC50) on IKKε is less than 5 nM; on TBK1, less than 10 nM.
Turning to `CC(C)(O)COc1ccc(-c2ccnc(Nc3ccc(N4CCOCC4)cc3)n2)cc1C#N` [Example 231, 2-(2-Hydroxy-2-methylpropoxy)-5-(2-{[4-(morpholin-4-yl)phenyl]amino}pyrimidin-4-yl)benzonitrile], the half-maximal inhibitory concentration (IC50) on IKKε is less than 5 nM; at TBK1 it was 10 to 100 nM.
The matching figures for `COc1ccc(Nc2nccc(-c3ccc(OC(C)C)c(C#N)c3)n2)cc1OC` [Example 111, 5-{2-[(3,4-Dimethoxyphenyl)amino]pyrimidin-4-yl}-2-(propan-2-yloxy)benzonitrile]: less than 5 nM and less than 10 nM.
Turning to `COCCNC(=O)c1ccc(Nc2nccc(-c3ccc(OCC4CC4)c(C#N)c3)n2)cc1` [compound 666], the IC50 at IKKε was less than 5 nM; on TBK1, less than 10 nM.
Take `CCN1CCN(c2ccc(-c3ccnc(Nc4ccc(N5CCOCC5)cc4)n3)cc2C#N)CC1` [Example 123, 2-(4-Ethylpiperazin-1-yl)-5-(2-{[4-(morpholin-4-yl)phenyl]amino}pyrimidin-4-yl)benzonitrile]: the IC50 was in the range of 5 to 50 nM at IKKε and 10 to 100 nM on TBK1.
Consider `CN(C)c1cccc(Nc2nccc(-c3ccc(OC4CCOCC4)c(C#N)c3)n2)c1` [compound 539, 5-(2-{[3-(Dimethylamino)phenyl]amino}pyrimidin-4-yl)-2-(tetrahydro-2H-pyran-4-yloxy)benzonitrile], for which the half-inhibitory concentration (IC50) on IKKε was less than 5 nM; on TBK1, less than 10 nM.
`CS(=O)(=O)N1CCC(Oc2ccc(-c3ccnc(Nc4ccc(N5CCOCC5)cc4)n3)cc2C#N)CC1` [Example 246, 2-{[1-(Methylsulfonyl)piperidin-4-yl]oxy}-5-(2-{[4-(morpholin-4-yl)phenyl]amino}pyrimidin-4-yl)benzonitrile]: the results for the IC50 at IKKε and at TBK1 were less than 5 nM and less than 10 nM, respectively.
As for `CC(C)(C)Oc1ccc(-c2ccnc(Nc3ccc(N4CCOCC4)cc3)n2)cc1C#N` [Example 164, 2-tert-Butyoxy-5-(2-{[4-(morpholin-4-yl)phenyl]amino}pyrimidin-4-yl)benzonitrile], the values for the IC50 at IKKε and on TBK1 were less than 5 nM and less than 10 nM, respectively.
The matching figures for `COc1cc(Nc2nccc(-c3ccc(OC4CCN(C(C)=O)CC4)c(C#N)c3)n2)cc(OC)c1OC` [Example 34, 2-[(1-acetylpiperidin-4-yl)oxy]-5-{2-[(3,4,5-trimethoxyphenyl)amino]pyrimidin-4-yl}benzonitrile]: less than 5 nM and less than 10 nM.
Turning to `COCCNCc1ccc(Nc2nccc(-c3ccc(OCC4CC4)c(C#N)c3)n2)cc1` [compound 581, 2-(Cyclopropylmethoxy)-5-{2-[(4-{[(2-methoxyethyl)amino]methyl}phenyl)amino]pyrimidin-4-yl}benzonitrile], the IC50 on IKKε was less than 5 nM; at TBK1 it was less than 10 nM.
For `COc1cc(NC(=O)N[C@H]2CC[C@H](O)CC2)cc(Nc2nccc(-c3ccc(OC)c(C#N)c3)n2)c1` [Example 280, 1-(3-{[4-(3-Cyano-4-methoxyphenyl)pyrimidin-2-yl]amino}-5-methoxyphenyl)-3-(trans-4-hydroxycyclohexyl) urea], the IC50 at IKKε was 5 to 50 nM; on TBK1, 10 to 100 nM.
On the same counts, the results for `CNCCCNS(=O)(=O)c1ccc(Nc2nccc(-c3ccc(OC4CCOCC4)c(C#N)c3)n2)cc1OC` [compound 396] are less than 5 nM and less than 10 nM.
